Here are results for two molecules from paper PMC11637191, “The pH-dependence of efflux ratios determined with bidirectional transport assays across cellular monolayers” (International Journal of Pharmaceutics: X, 2024).

The nature of data set [1]: Measurement of paracellular transport (Ppara) in MDCK-MDR1 cells with and without P-gp inhibitors. It is filed as in vitro ADME, canine. The note with it: dog, + 2 µM elacridar; for recovery: MDCK-MDR1, pH 5, with elacridar 2 µM, pH 5, n = 3 (Table S13); for Papp: MDCK-MDR1, with elacridar 2 µM, pH 5, three replicates (n = 3) (Table S13). The text has this:
In initial fits, we used experimentally obtained values for Ppara , determined by measuring the Papp of the relevant compound at a pH value where paracellular transport was expected to dominate. Since the compounds in this study are P-gp substrates, elacridar was also used to inhibit P-gp. Under these conditions, the measured Papp is expected to be a measure of Ppara . […]
X Measurement of paracellular transport […]
assess its relative contribution to overall flux, it is necessary to quantify paracellular transport in some way. An approximation of paracellular transport can be mathematically calculated as desc ribed in […]
and cell type can influence and complicate the predictions, leading to uncertainties. H owever, it can also be experimentally measured provided that it can be assured that the P app would be dominated by the contribution of P para . […]
compounds. In order to ensure paracellular dominance, 2 µM elacridar was used to inhibit potential P-gp facilitated efflux, and the transport buffer was set to a pH that would severely restrict the neutral […]
Table S13: P app values and measured logP para for basic and acidic marker compounds. P app values are the mean of three timepoints per replicate, for a total of three replicates (n = 3) ± standard […]
Compound pH Papp, A⟶B logP para Recovery fn
In light of the uncertainties in predicting P para , it was presumed more apt to measure P para for each compound individually in parallel with the pH dependence experiments. As described in Section 4.3 of the main text, experiments were initially performed for each tested compound with inhibitor and appropriate pH values (similar to those performed for Table S12) in an attempt to ensure the dominance of paracellular transport. These values could then be used as a direct measure for P para for each compound that could be fed to the model for its individual fit. […]
affecting P para and/or the measurement of it, we measured the P app of more commonly-used markers for paracellular transport with and without inhibitor. The transport of these rather hydrophilic compounds is known to be dominated by the paracellular route. Furthermore, for our MDCK- MDR1 […]
efflux is not expected to play a role. As such, the addition of inhibitor in this case is purely to evaluate if the P app changes when it is present.

For data set [2], the system named is MDCK-II-MDR1 cells.
The conditions of data set [3]: cited from earlier work.
Data set [4] is described as follows: in vitro. Particulars: dog.
The test system of data set [5] is P-gp (MDR1). In words: in vitro. The note with it: dog.
The nature of data set [6]: Calculation of neutral fraction (fn).
The test system of data set [7] is MDCK-MDR1 cells. Particulars: pH 7.4 iso-method, ref Troutman and Thakker (2003), cited from earlier work.
The subject of data set [8] is MDCK-MDR1 cells. In words: Comparison of Papp,B-A with and without inhibitor in MDCK-MDR1 cells (own and literature data).
For data set [9], the system named is P-gp (MDR1). Described as above. Particulars: dog, This study, varying pH with the iso-method.

Molecules are shown by their SMILES. Values joined by “and” are separate entries in the source; they are usually repeats but may differ in a detail not shown here. Identical values can stand only once. Like-named read-outs stand apart in the source and are kept apart here.

For orientation: Papp means the rate of passage across a membrane or cell layer, normalised by area and donor concentration. For orientation: pKa means the negative logarithm of the acid dissociation constant. For orientation: Papp A→B means the apparent permeability from the apical to the basolateral side of a cell layer. A lower Papp A→B goes with poor permeation. One may read the Papp B→A as the apparent permeability from the basolateral to the apical side of a cell layer. As for `COc1cccc2c1C(=O)c1c(O)c3c(c(O)c1C2=O)C[C@@](O)(C(=O)CO)C[C@@H]3O[C@H]1C[C@H](N)[C@H](O)[C@H](C)O1` [Doxorubicin], the recovery in data set [1] was 130%; in data set [4] (MDCK-MDR1, pH 5), 94 to 100%; in [4] (MDCK-MDR1, pH 6), 90 to 96%; in data set [4] (MDCK-MDR1, pH 7), 88 to 93%; in [4] (MDCK-MDR1, pH 8) it was 64 to 71%. Moreover, the apparent permeability (Papp) was determined as 0.4 ± 0.1 ×10⁻⁶ cm/s in data set [1]; 0.77 ± 0.26 ×10⁻⁶ cm/s in data set [5] (MDCK-MDR1, pH 5); 0.16 ± 0.03 ×10⁻⁶ cm/s in data set [5] (MDCK-MDR1, pH 6); 0.13 ± 0.03 ×10⁻⁶ cm/s in data set [5] (MDCK-MDR1, pH 7); 0.17 ± 0.05 ×10⁻⁶ cm/s in data set [5] (MDCK-MDR1, pH 8). Further, the “logPapp, B⟶A” value in data set [2] (pH 6, iso-pH method) is listed as -6.64 P in cm/s; in [2] (pH 7, iso-pH method), -6.11 P in cm/s; in data set [2] (pH 8, iso-pH method), -5.36 P in cm/s. Besides, the pKa in [3] (basic, ref Advanced Chemistry Development, 2020) is listed as 9.56. The molecule also showed a Papp A→B in data set [5] (MDCK-MDR1, pH 5) of 0.457 ×10⁻⁶ cm/s. Besides, the Papp B→A was 0.46 ± 0.25 ×10⁻⁶ cm/s in [5] (MDCK-MDR1, pH 5); 0.23 ± 0.08 ×10⁻⁶ cm/s in data set [5] (MDCK-MDR1, pH 6); 0.78 ± 0.36 ×10⁻⁶ cm/s in [5] (MDCK-MDR1, pH 7); 4.4 ± 0.29 ×10⁻⁶ cm/s in [5] (MDCK-MDR1, pH 8). Besides, the fn in [6] (neutral fraction at pH 5) is given as 0.0%.

`CCCC(=O)Nc1ccc(OCC(O)CNC(C)C)c(C(C)=O)c1` (stereo not drawn) [Acebutolol]: the recovery is 100% in data set [1]; 90 to 106% in data set [4] (MDCK-MDR1, pH 5); 88 to 120% in [4] (MDCK-MDR1, pH 6); 88 to 102% in data set [4] (MDCK-MDR1, pH 7); 78 to 83% in data set [4] (MDCK-MDR1, pH 8); 72 to 79% in [4] (MDCK-MDR1, pH 9). The Papp in data set [1] worked out at 0.6 ± 0.2 ×10⁻⁶ cm/s; in [5] (MDCK-MDR1, pH 5) it was 0.31 ± 0.11 ×10⁻⁶ cm/s; in data set [5] (MDCK-MDR1, pH 6), 0.1 ± 0.02 ×10⁻⁶ cm/s; in [5] (MDCK-MDR1, pH 7), 0.18 ± 0.02 ×10⁻⁶ cm/s; in [5] (MDCK-MDR1, pH 8), 0.61 ± 0.28 ×10⁻⁶ cm/s; in data set [5] (MDCK-MDR1, pH 9), 7.41 ± 3.04 ×10⁻⁶ cm/s. The apparent permeability coefficient (Papp) in data set [9] (MDCK-MDR1, Papp, B⟶A, without inhibitor) was 16.7 ×10⁻⁶ cm/s; in data set [9] (MDCK-MDR1, pH 8, with P-gp inhibitor (elacridar 2 µM in this study's P0 assays), Papp, inhibitor, with inhibitor), 5.03 ×10⁻⁶ cm/s. For the same molecule, the pKa in data set [3] (determined 25 °C, etoposide acidic, acebutolol basic, ref Avdeef, 2012) is recorded as 9.18. The Papp B→A in data set [5] (MDCK-MDR1, pH 5) is 0.28 ± 0.05 ×10⁻⁶ cm/s; in [5] (MDCK-MDR1, pH 6) it was 0.47 ± 0.07 ×10⁻⁶ cm/s; in data set [5] (MDCK-MDR1, pH 7) it was 2.92 ± 1.12 ×10⁻⁶ cm/s; in data set [5] (MDCK-MDR1, pH 8) it was 16.7 ± 2.4 ×10⁻⁶ cm/s; in data set [5] (MDCK-MDR1, pH 9), 38.5 ± 8.5 ×10⁻⁶ cm/s. In addition, the “Papp, inhibitor” value in data set [7] (with inhibitor) is 3.73 ×10⁻⁶ cm/s; in data set [8] (This study, with inhibitor, varying pH with the iso-method), 3.16 ×10⁻⁶ cm/s. The “Papp, B⟶A” value was 17.2 ×10⁻⁶ cm/s in [7] (without inhibitor) and 16.7 ×10⁻⁶ cm/s in data set [8] (This study, without inhibitor, varying pH with the iso-method). The fn in data set [6] (neutral fraction at pH 5) is on record as 0.0%; in data set [6] (neutral fraction at pH 8), 6%. Further, the Factor difference is 3 and 5 in data set [8] (This study, Papp,B⟶A vs Papp with inhibitor, varying pH with the iso-method); 5 in data set [8] (calculated from literature Papp,B⟶A and Papp with inhibitor, pH 7.4 iso-method).
